In BindingDB's records for doi:10.7270/Q2NZ862K (Nmmlsc, 2007):

Molecular target: T1, fMet-Leu-Phe receptor (Homo sapiens, UniProt P21462)
T1 sequence (P21462 whole entry): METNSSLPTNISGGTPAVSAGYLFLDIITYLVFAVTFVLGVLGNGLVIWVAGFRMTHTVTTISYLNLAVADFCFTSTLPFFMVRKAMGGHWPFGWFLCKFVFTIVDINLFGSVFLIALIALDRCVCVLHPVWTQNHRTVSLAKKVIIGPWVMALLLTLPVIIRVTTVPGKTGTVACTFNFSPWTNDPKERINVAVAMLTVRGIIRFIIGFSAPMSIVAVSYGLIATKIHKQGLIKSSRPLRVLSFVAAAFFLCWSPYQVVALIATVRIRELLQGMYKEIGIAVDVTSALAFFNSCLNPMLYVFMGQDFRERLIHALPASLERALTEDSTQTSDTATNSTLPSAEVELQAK
Assay: FPR ligands, dose response (AID 519)

Ki | SMILES
3.3 µM | COC(=O)c1[nH]c(C)c(C(=O)C2C(=O)C(=O)N(CCN3CCOCC3)C2c2cccs2)c1C (stereo not drawn)
> 43.7 µM | CC1=NC(C)=C(C#N)C(c2ccc3ncccc3c2)C1C#N (stereo not drawn)
> 43.7 µM | COc1cccc2cc(C(=O)C3C(=O)C(=O)N(Cc4ccco4)C3c3cccnc3)oc12 (stereo not drawn) [1-(2-furanylmethyl)-4-hydroxy-3-[(7-methoxy-2-benzofuranyl)-oxomethyl]-2-(3-pyridinyl)-2H-pyrrol-5-one]
17.7 µM | COc1cc(C2C(C(=O)c3cccs3)C(=O)C(=O)N2Cc2ccco2)cc(OC)c1OC (stereo not drawn) [1-(2-furanylmethyl)-4-hydroxy-3-[oxo(thiophen-2-yl)methyl]-2-(3,4,5-trimethoxyphenyl)-2H-pyrrol-5-one]
23 µM | O=C1C(=O)N(Cc2ccco2)C(c2ccccc2)C1C(=O)c1cccs1 (stereo not drawn) [1-(2-furanylmethyl)-4-hydroxy-3-[oxo(thiophen-2-yl)methyl]-2-phenyl-2H-pyrrol-5-one]
> 43.7 µM | COCCN1C(=O)C(=O)C(C(=O)c2cccs2)C1c1ccccc1 (stereo not drawn) [1-(2-methoxyethyl)-4-oxidanyl-2-phenyl-3-thiophen-2-ylcarbonyl-2H-pyrrol-5-one]
> 43.7 µM | O=C1C(=O)N(CCN2CCOCC2)C(c2ccccc2)C1C(=O)c1cccs1 (stereo not drawn) [1-(2-morpholin-4-ylethyl)-4-oxidanyl-2-phenyl-3-thiophen-2-ylcarbonyl-2H-pyrrol-5-one]
> 43.7 µM | Cc1ccc(C(=O)C2C(=O)C(=O)N(CCCn3ccnc3)C2c2ccc(OC(C)C)cc2)o1 (stereo not drawn) [1-(3-imidazol-1-ylpropyl)-3-(5-methylfuran-2-yl)carbonyl-4-oxidanyl-2-(4-propan-2-yloxyphenyl)-2H-pyrrol-5-one]
9 µM | CCCOc1ccc(C2C(C(=O)c3ccc(C)o3)C(=O)C(=O)N2CCCn2ccnc2)cc1 (stereo not drawn) [1-(3-imidazol-1-ylpropyl)-3-(5-methylfuran-2-yl)carbonyl-4-oxidanyl-2-(4-propoxyphenyl)-2H-pyrrol-5-one]
26.5 µM | C=CCOc1ccc(C2C(C(=O)c3cccs3)C(=O)C(=O)N2c2nnc(C)s2)cc1 (stereo not drawn) [1-(5-methyl-1,3,4-thiadiazol-2-yl)-4-oxidanyl-2-(4-prop-2-enoxyphenyl)-3-thiophen-2-ylcarbonyl-2H-pyrrol-5-one]
20 µM | O=C1C(=O)N(Cc2ccccc2)C(c2cccnc2)C1C(=O)c1ccco1 (stereo not drawn) [1-Benzyl-4-(furan-2-carbonyl)-3-hydroxy-5-pyridin-3-yl-1,5-dihydro-pyrrol-2-one]
8.9 µM | O=C1C(=O)N(Cc2ccccc2)C(c2ccncc2)C1C(=O)c1ccco1 (stereo not drawn) [1-Benzyl-4-(furan-2-carbonyl)-3-hydroxy-5-pyridin-4-yl-1,5-dihydro-pyrrol-2-one]
8.1 µM | O=C1C(=O)N(Cc2ccccc2)C(c2ccco2)C1C(=O)c1ccco1 (stereo not drawn) [1-Benzyl-4-(furan-2-carbonyl)-5-furan-2-yl-3-hydroxy-1,5-dihydro-pyrrol-2-one]
14 µM | O=C1C(=O)N(CCOCCO)C(c2cccs2)C1C(=O)c1cccs1 (stereo not drawn) [1-[2-(2-hydroxyethyloxy)ethyl]-4-oxidanyl-2-thiophen-2-yl-3-thiophen-2-ylcarbonyl-2H-pyrrol-5-one]
12.4 µM | COc1ccc(CCN2C(=O)C(=O)C(C(=O)c3ccco3)C2c2cccs2)cc1OC (stereo not drawn) [1-[2-(3,4-Dimethoxy-phenyl)-ethyl]-4-(furan-2-carbonyl)-3-hydroxy-5-thiophen-2-yl-1,5-dihydro-pyrrol-2-one]
> 43.7 µM | Cc1ccc(C(=O)C2C(=O)C(=O)N(Cc3ccccc3)C2c2cccnc2)o1 (stereo not drawn) [1-benzyl-3-hydroxy-4-[(5-methylfuran-2-yl)carbonyl]-5-(pyridin-3-yl)-2,5-dihydro-1H-pyrrol-2-one]
> 43.7 µM | COc1ccc(OC)c(C2C(C(=O)c3cccs3)C(=O)C(=O)N2c2cc(C)on2)c1 (stereo not drawn) [2-(2,5-dimethoxyphenyl)-1-(5-methyl-1,2-oxazol-3-yl)-4-oxidanyl-3-thiophen-2-ylcarbonyl-2H-pyrrol-5-one]
17.3 µM | COc1ccc(OC)c(C2C(C(=O)c3ccco3)C(=O)C(=O)N2CCCN2CCOCC2)c1 (stereo not drawn) [2-(2,5-dimethoxyphenyl)-3-(furan-2-carbonyl)-4-hydroxy-1-(3-morpholin-4-ylpropyl)-2H-pyrrol-5-one]
